# In PMC4142572 (Bioorganic & medicinal chemistry letters, 2014):
# Target: hPDE4B (Homo sapiens, UniProt Q07343)
# Test: Enzymatic inhibition of PDE4B long isoform in vitro
# Type: biochemical
# Conditions: for PDE4B-subtype selectivity: enzymatic assays using PDE4B1 and PDE4D7
# Sequence of hPDE4B (Q07343 whole entry, canonical isoform): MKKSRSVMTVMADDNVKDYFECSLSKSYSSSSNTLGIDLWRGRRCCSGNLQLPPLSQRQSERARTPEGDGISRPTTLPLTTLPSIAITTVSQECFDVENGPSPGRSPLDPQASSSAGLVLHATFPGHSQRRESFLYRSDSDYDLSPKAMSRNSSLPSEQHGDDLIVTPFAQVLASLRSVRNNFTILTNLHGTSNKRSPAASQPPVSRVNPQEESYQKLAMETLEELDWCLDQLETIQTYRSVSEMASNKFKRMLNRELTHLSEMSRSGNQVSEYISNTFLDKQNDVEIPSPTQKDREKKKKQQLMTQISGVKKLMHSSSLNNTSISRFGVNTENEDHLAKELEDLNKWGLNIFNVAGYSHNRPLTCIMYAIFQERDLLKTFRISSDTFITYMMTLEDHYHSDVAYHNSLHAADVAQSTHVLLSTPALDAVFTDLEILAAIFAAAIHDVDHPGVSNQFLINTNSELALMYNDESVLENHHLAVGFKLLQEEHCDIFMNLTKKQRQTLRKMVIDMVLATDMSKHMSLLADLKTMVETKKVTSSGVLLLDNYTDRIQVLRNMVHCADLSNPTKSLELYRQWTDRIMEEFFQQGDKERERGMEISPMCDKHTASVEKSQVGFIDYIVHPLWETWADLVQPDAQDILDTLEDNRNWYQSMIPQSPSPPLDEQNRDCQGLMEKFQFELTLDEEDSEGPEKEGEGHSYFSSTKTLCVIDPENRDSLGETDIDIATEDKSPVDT
PDE4B-subtype selectivity,IC50 [nM],SMILES
does not show PDE4B-subtype selectivity,–,CCOc1nc(Nc2ccc(OC)cc2)nc(OCC)n1 [Compound 1]
highly selective for PDE4B,–,"CCc1c(C)nc(-c2ccc(Cl)s2)nc1Nc1ccc(CC(=O)O)cc1 [Compound 2, reference compound]"
–,770,O=C(O)Cc1ccc(Nc2nc(-c3ccc(Cl)cc3)nc(C3CC3)n2)cc1 [Compound 9]
